Data: patent US9579335B2, “Treatment of cystic diseases” (Indiana University Research and Technology Corporation, priority 2010, dated 2017)

Tested on: mpkCCDcl4 cells
Experiment: Ussing-chamber short-circuit current (SCC) measurement of net transepithelial ion transport
Format: cell-based, mouse
Settings: for ion transport (SCC) response to addition of the substance itself: added to the bathing media of monolayers, no prior stimulus; for effect of pretreatment on cyst fluid stimulated ion transport (SCC): inhibitor/effector added before 10% cyst fluid on serosal side
Experimental: mpkCCDcl4 cell culture. mpkCCDcl4 cells were developed as a line expressing the characteristics of the principal cell type of the distal nephron and cortical collecting duct. mpkCCDcl4 cells were grown in a humidified chamber at 37° C. and 5% CO2. The cell line was maintained in plastic culture flasks for propagation. For electrophysiological measurements, the cells were seeded onto Transwell filters at ¼ confluent density. The media was replaced thrice weekly and consisted of Dulbecco's modified Eagle's medium (DMEM): Ham's F12 basal media supplemented with 2% fetal bovine serum, 1 mM Glutamax, 25 U/mL penicillin, […] streptomycin, 12 mg/L ciprofloxacin, 5 mg/L transferrin, 20 μg/L sodium selenite, and 10^−7 M triiodothyronine.
Electrophysiology. Ussing-style electrophysiological measurements were used to measure net transepithelial transport as well as to monitor the transepithelial resistance as described previously. Briefly, transwell permeable membranes containing confluent (>10 days post seeding) monolayers of mpkCCDcl4 cells were excised from the plastic supports, mounted in modified Ussing chambers, and connected to a DVC-1000 Voltage/Current Clamp (World Precision Instruments) with voltage and current electrodes on either side of the membrane. The cells were bathed in serum-free medium maintained at 37° C. via water-jacketed buffer chambers on either side of the filter. Medium was circulated and kept at constant pH using a 5% CO2/95% O2 gas lift. The spontaneous transepithelial potential difference was measured and then clamped to zero. The resulting short-circuit current (SCC) is a measure of net transepithelial ion transport. During the entire experiment, non-zero voltage pulses are induced every 200 seconds and the current displacement during the pulse is used to calculate the transepithelial resistance via Ohm's law. Cultures with resistances lower than 1000 Ω·cm^2 measured within the first 10 minutes of placement in the chambers were discarded. The basal level of transport was monitored for 20-40 minutes before the start of an experiment. The time of addition of the stimulatory effector is defined as zero time.
Unless otherwise stated, each experiment was repeated 3-4 times. Because of variability in the magnitude of the stimulatory responses to cyst fluid from various patients, only one representative experiment is depicted.
The functional effects of cyst fluid were measured as changes in net transepithelial ion transport across high resistance epithelia formed by the mpkCCDcl4 cell line. […] For electrophysiological measurements, confluent cell monolayers grown on permeable supports are mounted in Ussing chambers with access to both the basolateral and apical surfaces. The spontaneous transepithelial potential difference is measured and clamped to zero. In high resistance epithelia, the resulting short-circuit current (SCC) is a measure of net transepithelial transport. By convention, a positive change is defined as anion moving in a secretory direction (serosal to luminal bathing media) or a cation moving in an absorptive direction (luminal to serosal bathing media). Likewise, a decrease in SCC can be defined as anions or cations moving in the opposite direction from that described above. The nature and direction of the ion flux is characterized by effectors and inhibitors.

| Molecule | ion transport (SCC) response to addition of the substance itself | effect of pretreatment on cyst fluid stimulated ion transport (SCC) | also measured |
| --- | --- | --- | --- |
| N=C(N)NC(=O)c1nc(Cl)c(N)nc1N [amiloride] | immediate decrease in the basal current |  | effect of pre-treatment on subsequent response to forskolin (amiloride 10^-5 M apical, 10 minutes before forskolin): completely eliminated a subsequent response to forskolin; effect on forskolin-stimulated ion transport, added after forskolin (amiloride 10^-5 M apical, 30 minutes after forskolin): completed inhibited; effect on ion transport remaining 30 minutes after cyst fluid addition (amiloride added to apical bathing media): decreased the remaining ion transport to zero |
| CCCCCCCCCCCCOP(=O)(O)O [DDP, dodecylphosphate] |  | no effect |  |
| O=C(OC[C@H]1O[C@@H](OC(=O)c2cc(O)c(O)c(OC(=O)c3cc(O)c(O)c(O)c3)c2)[C@H](OC(=O)c2cc(O)c(O)c(OC(=O)c3cc(O)c(O)c(O)c3)c2)[C@@H](OC(=O)c2cc(O)c(O)c(OC(=O)c3cc(O)c(O)c(O)c3)c2)[C@@H]1OC(=O)c1cc(O)c(O)c(OC(=O)c2cc(O)c(O)c(O)c2)c1)c1cc(O)c(O)c(OC(=O)c2cc(O)c(O)c(O)c2)c1 [tannic acid] |  | Neither inhibitor alone completely blocked the response |  |
| CCCCCCCC(=O)OC[C@H](COP(=O)(O)OP(=O)(O)O)OC(=O)CCCCCCC [DGPP, diacylglycerol pyrophosphate] |  | substantially inhibited | concentrations with adverse effect on integrity of the cellular monolayer (decrease in transepithelial resistance): above 20 μM; average inhibition of the Cl- secretory peak stimulated in response to 10% cyst fluid (pretreatment with 20 μM DGPP, five experiments): 72.8+4.49% |
| CCCCCCCCCCCCC/C=C/[C@@H](O)[C@@H](N)COP(=O)(O)O [S-1-P, sphingosine-1-phosphate] | consistently minimal compared to those elicited by LPA |  |  |
| [Ba+2] [Ba^2+] |  |  | effect on stimulated Cl- secretion (pretreatment on the apical face): without effect; inhibition of stimulated Cl- secretion (pretreatment on the serosal side): about 50% |
| lysophosphatic acid [LPA] | identical to the response to renal cyst fluid |  |  |
| N-palmitoyl-L-serine phosphoric acid [L-NASPA] | immediate response that mimics the response to LPA or 10% cyst fluid | appears to inhibit a subsequent response to cyst fluid |  |
| O=C(CNc1ccc2ccccc2c1)N/N=C/c1cc(Br)c(O)c(Br)c1O [GlyH-101] | causes a stimulatory response when added | Neither inhibitor alone completely blocked the response |  |
| COc1ccc2c(c1)c(CC(=O)O)c(C)n2C(=O)c1ccc(Cl)cc1 [Indomethacin, indomethacin] |  | did not alter |  |
